“Also recorded” adds a separate entry of the source.
Biological target: T1, HA-RXFP3 E77A (Homo sapiens, UniProt Q9NSD7, E77A)
T1 construct: expressed in transfected cells; host or cells: HEK-293T
T1 sequence (Q9NSD7 2-469 E77A limits assumed): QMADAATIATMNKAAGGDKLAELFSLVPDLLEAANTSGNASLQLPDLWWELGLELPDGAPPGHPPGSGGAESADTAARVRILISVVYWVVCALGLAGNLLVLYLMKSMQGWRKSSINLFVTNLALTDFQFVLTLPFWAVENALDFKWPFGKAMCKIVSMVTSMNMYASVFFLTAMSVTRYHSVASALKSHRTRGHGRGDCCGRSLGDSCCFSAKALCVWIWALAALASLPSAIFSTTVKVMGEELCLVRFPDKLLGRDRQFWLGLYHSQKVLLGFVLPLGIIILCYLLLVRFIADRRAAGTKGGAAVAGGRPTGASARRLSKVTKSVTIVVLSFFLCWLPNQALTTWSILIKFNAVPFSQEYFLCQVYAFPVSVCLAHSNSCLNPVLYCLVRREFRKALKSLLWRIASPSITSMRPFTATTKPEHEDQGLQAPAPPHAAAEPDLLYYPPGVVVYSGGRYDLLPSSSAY
Assay: Competition binding with Eu-H3/I5, HA-RXFP3 E77A
Method: PCR reactions and cloning were undertaken as previously described ([Scott et al., 2006], [2012]).
The same protocol was used to prepare DNA templates of all Glu/Asp to Ala mutants, entailing a single codon change except for D47A/E51A, E55A/D58A, and E141A/D145A which required a double codon change both to Ala. The forward and reverse primers for all mutants are listed in Table 1 and mutagenesis reactions on pcDNA3.1zeo (+)-HA-RXFP3 were performed as previously described ([Scott et al., 2006]; [Yan et al., 2008]). […]
HEK-293T cells were transfected in 96 well optiplates (Perkin Elmer) with plasmids encoding the constructs of interest and Eu-H3/I5 binding assays conducted as described previously ([Luo et al., 2010]; [Haugaard-Kedstrom et al., 2011]). […] Binding data are expressed as mean ± standard error of mean (SEM) of % specific binding of triplicate measurements pooled from at least three independent experiments. Data were analyzed using Graphpad PRISM (Graphpad Inc.) and a non-linear regression one-site binding model was used to plot curves and calculate pIC50 values. […] The HA epitope was detected using a purified mouse monoclonal anti-HA antibody [HA.11(16B12), Covance] and a Alexafluor488-labeled goat anti mouse IgG (Invitrogen) in cell surface expression assays that were performed in 24 well plates as previously described ([Yan et al., 2008]). […]

CC[C@H](C)[C@@H]1NC(=O)[C@H](Cc2ccccc2)NC(=O)[C@H](CCC(=O)O)NC(=O)[C@H](CCCNC(=N)N)NC(=O)CNC(=O)[C@@H](NC(=O)[C@H](CC(C)C)NC(=O)[C@H](CCCNC(=N)N)NC(=O)[C@@H](NC(=O)CNC(=O)[C@H](Cc2ccc(O)cc2)NC(=O)[C@@H]2CCCN2C(=O)[C@H](C)NC(=O)[C@H](C)NC(=O)[C@@H](N)CCCNC(=N)N)C(C)C)CSSC[C@@H]2NC(=O)[C@@H](NC(=O)[C@H](CO)NC(=O)[C@H](CO)NC(=O)[C@H](CO)NC(=O)[C@H](CC(C)C)NC(=O)CNC(=O)[C@H](C)NC(=O)[C@H](CC(C)C)NC(=O)[C@@H](NC(=O)[C@@H](N)CC(=O)O)C(C)C)CSSC[C@H](NC(=O)CNC(=O)[C@H](Cc3c[nH]c4ccccc34)NC(=O)[C@H](CCCCN)NC2=O)C(=O)N[C@@H](CO)C(=O)N[C@@H](CCCCN)C(=O)N[C@@H](CO)C(=O)N[C@@H](CCC(=O)O)C(=O)N[C@@H]([C@@H](C)CC)C(=O)N[C@@H](CO)C(=O)N[C@@H](CO)C(=O)N[C@@H](CC(C)C)C(=O)N[C@H](C(=O)O)CSSC[C@@H](C(=O)NCC(=O)NCC(=O)N[C@@H](CO)C(=O)N[C@@H](CCCNC(=N)N)C(=O)N[C@@H](Cc2c[nH]c3ccccc23)C(=O)O)NC(=O)[C@H]([C@@H](C)O)NC(=O)[C@H](Cc2ccccc2)NC(=O)[C@H]([C@@H](C)CC)NC(=O)[C@H](C(C)C)NC(=O)[C@H](C)NC(=O)[C@H](CCCNC(=N)N)NC1=O [H3 relaxin]
IC50: 31.6 nM | affinity compared with HA-RXFP3 (competition binding, p > 0.05): slightly lower H3 relaxin binding affinity but this was not significantly different from HA-RXFP3; also recorded: no significant difference in H3 relaxin affinity; also recorded: did not show a significant drop in binding
